# Test results reported in PubChem BioAssay (NCI).
#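 Where inhibition never reached the appropriate level, the endpoint shown equals the highest concentration tested. Otherwise, values were interpolated linearly from a five-concentration, 48-hour dose response in 96-well plates. The concentration for 50% growth inhibition is given as GI50. TGI: concentration producing complete growth inhibition.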
# Key:
# Assay in all cases: DTP human tumour cell line panel, 48 h
# NCI-H460 lung = system: NCI-H460 lung
# OVCAR-8 ovarian = system: OVCAR-8 ovarian
# SF-295 CNS = system: SF-295 CNS
# DU-145 prostate = system: DU-145 prostate
# K-562 leukemia = system: K-562 leukemia
# UO-31 renal = system: UO-31 renal
# BT-549 breast = system: BT-549 breast
# MDA-MB-468 breast = system: MDA-MB-468 breast
# EKVX NSCLC = system: EKVX NSCLC
# HOP-62 NSCLC = system: HOP-62 NSCLC
# COLO 205 colon = system: COLO 205 colon
# UACC-62 melanoma = system: UACC-62 melanoma
# M14 melanoma = system: M14 melanoma
# T-47D breast = system: T-47D breast
# SN12C renal = system: SN12C renal
# HCT-15 colon = system: HCT-15 colon
# HS 578T breast = system: HS 578T breast
# SNB-19 CNS = system: SNB-19 CNS
# PC-3 prostate = system: PC-3 prostate
# NCI-H23 lung = system: NCI-H23 lung
# U251 CNS = system: U251 CNS
# HOP-92 NSCLC = system: HOP-92 NSCLC
# LOX IMVI melanoma = system: LOX IMVI melanoma
# SR leukemia = system: SR leukemia
# OVCAR-4 ovarian = system: OVCAR-4 ovarian
# MDA-MB-231 breast = system: MDA-MB-231 breast
# MOLT-4 leukemia = system: MOLT-4 leukemia
# OVCAR-3 ovarian = system: OVCAR-3 ovarian
# UACC-257 melanoma = system: UACC-257 melanoma
# MALME-3M melanoma = system: MALME-3M melanoma
# HCC-2998 colon = system: HCC-2998 colon
# A549 NSCLC = system: A549 NSCLC
# NCI-H226 lung = system: NCI-H226 lung
# SK-MEL-28 melanoma = system: SK-MEL-28 melanoma
# SW-620 colon = system: SW-620 colon
# SF-268 CNS = system: SF-268 CNS
# RXF 393 renal = system: RXF 393 renal
# SK-MEL-2 melanoma = system: SK-MEL-2 melanoma
# NCI-H522 lung = system: NCI-H522 lung
# A498 renal = system: A498 renal
# HT29 colon = system: HT29 colon
# RPMI-8226 leukemia = system: RPMI-8226 leukemia
# HL-60(TB) leukemia = system: HL-60(TB) leukemia
# ACHN renal = system: ACHN renal
# KM12 colon = system: KM12 colon
# SK-OV-3 ovarian = system: SK-OV-3 ovarian
# 786-0 renal = system: 786-0 renal
# TK-10 renal = system: TK-10 renal
# NCI/ADR-RES ovarian = system: NCI/ADR-RES ovarian
# CAKI-1 renal = system: CAKI-1 renal
# CCRF-CEM leukemia = system: CCRF-CEM leukemia
# MDA-MB-435 = system: MDA-MB-435
# MCF7 breast = system: MCF7 breast
# SK-MEL-5 melanoma = system: SK-MEL-5 melanoma
# OVCAR-5 ovarian = system: OVCAR-5 ovarian
# IGROV1 ovarian = system: IGROV1 ovarian
# SF-539 CNS = system: SF-539 CNS
structure (smiles),measurement,setting,value
COc1ccc(C(=O)/C=C/c2ccc(Cl)c(Cl)c2)cc1S(N)(=O)=O,GI50,NCI-H460 lung,2720 nM
same,TGI,NCI-H460 lung,8220 nM
same,GI50,OVCAR-8 ovarian,2000 nM
same,TGI,OVCAR-8 ovarian,5750 nM
same,GI50,SF-295 CNS,1740 nM
same,TGI,SF-295 CNS,3770 nM
same,GI50,DU-145 prostate,3500 nM
same,TGI,DU-145 prostate,12800 nM
same,GI50,K-562 leukemia,2030 nM
same,TGI,K-562 leukemia,10800 nM
same,GI50,UO-31 renal,1270 nM
same,TGI,UO-31 renal,2520 nM
same,GI50,BT-549 breast,1630 nM
same,TGI,BT-549 breast,3330 nM
same,GI50,MDA-MB-468 breast,1470 nM
same,TGI,MDA-MB-468 breast,2980 nM
same,GI50,EKVX NSCLC,2120 nM
same,TGI,EKVX NSCLC,4730 nM
same,GI50,HOP-62 NSCLC,1890 nM
same,TGI,HOP-62 NSCLC,4750 nM
same,GI50,COLO 205 colon,1830 nM
same,TGI,COLO 205 colon,3430 nM
same,GI50,UACC-62 melanoma,1480 nM
same,TGI,UACC-62 melanoma,2960 nM
same,GI50,M14 melanoma,1860 nM
same,TGI,M14 melanoma,3900 nM
same,GI50,T-47D breast,1970 nM
same,TGI,T-47D breast,5570 nM
same,GI50,SN12C renal,1390 nM
same,TGI,SN12C renal,2740 nM
same,GI50,HCT-15 colon,496 nM
same,TGI,HCT-15 colon,1810 nM
same,GI50,HS 578T breast,6010 nM
same,TGI,HS 578T breast,52000 nM
same,GI50,SNB-19 CNS,1880 nM
same,TGI,SNB-19 CNS,4210 nM
same,GI50,PC-3 prostate,1860 nM
same,TGI,PC-3 prostate,5070 nM
same,GI50,NCI-H23 lung,1750 nM
same,TGI,NCI-H23 lung,3430 nM
same,GI50,U251 CNS,1410 nM
same,TGI,U251 CNS,2930 nM
same,GI50,HOP-92 NSCLC,2290 nM
same,TGI,HOP-92 NSCLC,7310 nM
same,GI50,LOX IMVI melanoma,653 nM
same,TGI,LOX IMVI melanoma,1930 nM
same,GI50,SR leukemia,797 nM
same,TGI,SR leukemia,10200 nM
same,GI50,OVCAR-4 ovarian,1600 nM
same,TGI,OVCAR-4 ovarian,2970 nM
same,GI50,MDA-MB-231 breast,1990 nM
same,TGI,MDA-MB-231 breast,4110 nM
same,GI50,MOLT-4 leukemia,2350 nM
same,TGI,MOLT-4 leukemia,6750 nM
same,GI50,OVCAR-3 ovarian,1190 nM
same,TGI,OVCAR-3 ovarian,2550 nM
same,GI50,UACC-257 melanoma,2500 nM
same,TGI,UACC-257 melanoma,8990 nM
same,GI50,MALME-3M melanoma,2150 nM
same,TGI,MALME-3M melanoma,5170 nM
same,GI50,HCC-2998 colon,1400 nM
same,TGI,HCC-2998 colon,2710 nM
same,GI50,A549 NSCLC,2170 nM
same,TGI,A549 NSCLC,10500 nM
same,GI50,NCI-H226 lung,3040 nM
same,TGI,NCI-H226 lung,13400 nM
same,GI50,SK-MEL-28 melanoma,1750 nM
same,TGI,SK-MEL-28 melanoma,3260 nM
same,GI50,SW-620 colon,1340 nM
same,TGI,SW-620 colon,3520 nM
same,GI50,SF-268 CNS,2910 nM
same,TGI,SF-268 CNS,11900 nM
same,GI50,RXF 393 renal,1740 nM
same,TGI,RXF 393 renal,3500 nM
same,GI50,SK-MEL-2 melanoma,5660 nM
same,TGI,SK-MEL-2 melanoma,18600 nM
same,GI50,NCI-H522 lung,1580 nM
same,TGI,NCI-H522 lung,3160 nM
same,GI50,A498 renal,8860 nM
same,TGI,A498 renal,22100 nM
same,GI50,HT29 colon,1460 nM
same,TGI,HT29 colon,2770 nM
same,GI50,RPMI-8226 leukemia,1670 nM
same,TGI,RPMI-8226 leukemia,5960 nM
same,GI50,HL-60(TB) leukemia,1880 nM
same,TGI,HL-60(TB) leukemia,6310 nM
same,GI50,ACHN renal,1710 nM
same,TGI,ACHN renal,3110 nM
same,GI50,KM12 colon,888 nM
same,TGI,KM12 colon,2430 nM
same,GI50,SK-OV-3 ovarian,5530 nM
same,TGI,SK-OV-3 ovarian,18000 nM
same,GI50,786-0 renal,1620 nM
same,TGI,786-0 renal,3110 nM
same,GI50,TK-10 renal,2020 nM
same,TGI,TK-10 renal,5890 nM
same,GI50,NCI/ADR-RES ovarian,2250 nM
same,TGI,NCI/ADR-RES ovarian,5930 nM
same,GI50,CAKI-1 renal,1750 nM
same,TGI,CAKI-1 renal,4190 nM
same,GI50,CCRF-CEM leukemia,2700 nM
same,TGI,CCRF-CEM leukemia,7950 nM
same,GI50,MDA-MB-435,2420 nM
same,TGI,MDA-MB-435,7260 nM
same,GI50,MCF7 breast,1050 nM
same,TGI,MCF7 breast,3160 nM
same,GI50,SK-MEL-5 melanoma,2450 nM
same,TGI,SK-MEL-5 melanoma,6890 nM
same,GI50,OVCAR-5 ovarian,1600 nM
same,TGI,OVCAR-5 ovarian,3340 nM
same,GI50,IGROV1 ovarian,2000 nM
same,TGI,IGROV1 ovarian,5130 nM
same,GI50,SF-539 CNS,1670 nM
same,TGI,SF-539 CNS,3250 nM
